From patent publication US20120135995A1, “FUNGICIDAL DIPHENYL-SUBSTITUTED PYRIDAZINES” (E.I. Dupont de Nemours and Company, priority 2009, published 2012)

Legend:
Assay type in all cases: in vivo
[1] = tested on: Puccinia recondita f. sp. tritici; assay: Test E1: wheat seedlings inoculated with Puccinia recondita f. sp. tritici (wheat leaf rust), sprayed afterwards, visual disease rating; details: sprayed after inoculation; for Test E1 rating (disease control): 200 ppm test suspension
Excerpt: (§1) General protocol for preparing test suspensions for Tests A-F: the test compounds were first dissolved in acetone in an amount equal to 3% of the final volume and then suspended at the desired concentration (in ppm) in acetone and purified water (50/50 mix) containing 250 ppm of the surfactant Trem® 014 (polyhydric alcohol esters). The resulting test suspensions were then used in Tests A-F. Spraying a 200 ppm test suspension to the point of run-off on the test plants was the equivalent of a rate of 500 g/ha. An asterisk “*” next to the rating value indicates a 40 ppm test suspension.
Wheat seedlings were inoculated with a spore suspension of Puccinia recondita f. sp. tritici (the causal agent of wheat leaf rust) and incubated in a saturated atmosphere at 20° C. for 24 h, and then moved to a growth chamber at 20° C. for 2 days. At the end of this time the test suspension was sprayed to the point of run-off on the wheat seedlings, and then the seedlings were moved to a growth chamber at 20° C. for 6 days, after which time visual disease ratings were made.
(§2) Results for Tests A-F are given in Table A. In the Table, a rating of 100 indicates 100% disease control and a rating of 0 indicates no disease control (relative to the controls). A dash (-) indicates no test results. All results are for 200 ppm except where followed by “*”, which indicates 40 ppm.

Septoria nodorum = assay: Test C: wheat seedlings sprayed, next day inoculated with Septoria nodorum (wheat glume blotch), visual disease rating; details: sprayed day before inoculation; for pest or weed control at 40 ppm: 40 ppm test suspension (*)
Excerpt: as §1
(§3) The test suspension was sprayed to the point of run-off on wheat seedlings. The following day the seedlings were inoculated with a spore suspension of Septoria nodorum (the causal agent of wheat glume blotch) and incubated in a saturated atmosphere at 24° C. for 48 h, and then moved to a growth chamber at 20° C. for 6 days, after which time visual disease ratings were made.
as §2

Erysiphe graminis = assay: Test F: wheat seedlings sprayed, next day inoculated with Erysiphe graminis (wheat powdery mildew), visual disease rating; details: sprayed day before inoculation; for pest or weed control at 40 ppm: 40 ppm test suspension (*)
Excerpt: as §1
The test suspension was sprayed to the point of run-off on wheat seedlings. The following day the seedlings were inoculated with a spore dust of Erysiphe graminis, (the causal agent of wheat powdery mildew) and incubated in a growth chamber at 20° C. for 8 days, after which time visual disease ratings were made.
as §2

Alternaria solani = assay: Test B: tomato seedlings sprayed, next day inoculated with Alternaria solani (tomato early blight), visual disease rating; details: sprayed day before inoculation; for pest or weed control at 40 ppm: 40 ppm test suspension (*)
Excerpt: as §1
as §3, with “tomato” for “wheat”, “Alternaria solani” for “Septoria nodorum”, “tomato early blight)” for “wheat glume blotch)”, “27°” for “24°”, “5” for “6”
as §2

[2] = tested on: Puccinia recondita f. sp. tritici; assay: Test E2: wheat seedlings sprayed, next day inoculated with Puccinia recondita f. sp. tritici (wheat leaf rust), visual disease rating; details: sprayed day before inoculation; for pest or weed control at 40 ppm: 40 ppm test suspension (*)
Excerpt: as §1
The test suspension was sprayed to the point of run-off on wheat seedlings. The following day the seedlings were inoculated with a spore suspension of Puccinia recondita f. sp. tritici (the causal agent of wheat leaf rust) and incubated in a saturated atmosphere at 20° C. for 24 h, and then moved to a growth chamber at 20° C. for 7 days, after which time visual disease ratings were made.
as §2

Botrytis cinerea = assay: Test A: tomato seedlings sprayed, next day inoculated with Botrytis cinerea (tomato Botrytis), visual disease rating; details: sprayed day before inoculation; for pest or weed control at 40 ppm: 40 ppm test suspension (*)
Excerpt: as §1
The test suspension was sprayed to the point of run-off on tomato seedlings. The following day the seedlings were inoculated with a spore suspension of Botrytis cinerea (the causal agent of tomato Botrytis) and incubated in saturated atmosphere at 20° C. for 48 h, and then moved to a growth chamber at 24° C. for 3 days, after which time visual disease ratings were made.
as §2

Septoria tritici = assay: Test D: wheat seedlings sprayed, next day inoculated with Septoria tritici (wheat leaf blotch), visual disease rating; details: sprayed day before inoculation; for pest or weed control at 40 ppm: 40 ppm test suspension (*)
Excerpt: as §1
as §3, with “tritici” for “nodorum”, “leaf” for “glume”, “in” for “in a”, “19” for “6”
as §2

Row | Compound | Test E1 rating (disease control) [1] [%] | Test C rating (disease control) (Septoria nodorum; 200 ppm test suspension) [%] | Test F rating (disease control) (Erysiphe graminis; 200 ppm test suspension) [%] | Test B rating (disease control) (Alternaria solani; 200 ppm test suspension) [%] | Test E2 rating (disease control) ([2]; 200 ppm test suspension) [%] | pest or weed control at 40 ppm (Septoria nodorum; Parastagonospora nodorum) [%] | pest or weed control at 40 ppm (Botrytis cinerea; Botrytis cinerea) [%] | pest or weed control at 40 ppm (Erysiphe graminis; Blumeria graminis) [%] | pest or weed control at 40 ppm (Septoria tritici; Zymoseptoria tritici) [%] | pest or weed control at 40 ppm (Alternaria solani; Alternaria solani) [%] | pest or weed control at 40 ppm ([2]; Puccinia recondita) [%] | Test A rating (disease control) (Botrytis cinerea; 200 ppm test suspension) [%] | Test D rating (disease control) (Septoria tritici; 200 ppm test suspension) [%] | further results
1 | COc1cc(OC)cc(-c2c(C)nnc(Cl)c2-c2ccc(F)cc2Cl)c1 [Compound 48] | 0 | 0 | 97 | 100 | 99 |  |  |  |  |  |  |  |  | 
2 | COc1cc(OC)cc(-c2c(CCl)nnc(Cl)c2-c2c(F)cccc2F)c1 [Compound 26, 3-chloro-6-(chloromethyl)-4-(2,6-difluorophenyl)-5-(3,5-dimethoxyphenyl)-pyridazine] |  |  |  |  |  | 0 | 99 | 0 | 99 | 0 | 97 |  |  | pest or weed control at 40 ppm ([1]; Puccinia recondita, 40 ppm test suspension (*)): 0%
3 | COc1cc(OC)cc(-c2c(C)nnc(C)c2-c2c(F)cccc2Cl)c1 [Compound 39] | 99 | 99 | 98 | 99 | 100 |  |  |  |  |  |  | 100 | 100 | 
4 | COc1cc(OC)c(Cl)c(-c2c(C)nnc(Cl)c2-c2c(F)cccc2Cl)c1 [Compound 41] | 86 | 0 | 100 | 99 | 100 |  |  |  |  |  |  | 99 | 100 | 
5 | COc1ccc(-c2c(C)nnc(C(C)=O)c2-c2cc(OC)cc(OC)c2)cc1 [Compound 14] | 16 | 0 | 84 | 0 | 95 |  |  |  |  |  |  | 99 | 99 | 
6 | COc1cc(OC)c(Cl)c(-c2c(C)nnc(F)c2-c2ccc(F)cc2F)c1 [Compound 51] | 0 | 0 | 99 | 100 | 100 |  |  |  |  |  |  | 99 |  | 
7 | COc1cc(OC)c(Cl)c(-c2c(C)nnc(Cl)c2-c2ccc(F)cc2Cl)c1 [Compound 53] | 98 | 98 | 100 | 99 | 100 |  |  |  |  |  |  | 99 |  | 
8 | COc1cc(OC)c(Cl)c(-c2c(C)nnc(C)c2-c2ccc(F)cc2F)c1 [Compound 49] | 100 | 99 | 100 | 99 | 100 |  |  |  |  |  |  |  |  | 
9 | COc1cc(OC)cc(-c2c(C)nnc(Cl)c2-c2c(F)cc(OC)cc2F)c1 [Compound 10, 3-chloro-4-(2,6-difluoro-4-methoxyphenyl)-5-(3,5-dimethoxyphenyl)-6-methylpyridazine] |  |  |  |  |  | 98 | 100 | 99 | 99 | 100 | 100 |  |  | 
10 | COc1cc(OC)cc(-c2cnnc(C)c2-c2c(F)cc(F)cc2F)c1 [Compound 6, 5-(3,5-dimethoxyphenyl)-3-methyl-4-(2,4,6-trifluorophenyl)pyridazine] |  |  |  |  |  |  |  |  |  |  |  |  |  | pest or weed control at 200 ppm (Septoria nodorum; Parastagonospora nodorum, 200 ppm test suspension): 96%; pest or weed control at 200 ppm (Botrytis cinerea; Botrytis cinerea, 200 ppm test suspension): 97%; pest or weed control at 200 ppm (Erysiphe graminis; Blumeria graminis, 200 ppm test suspension): 100%; pest or weed control at 200 ppm (Septoria tritici; Zymoseptoria tritici, 200 ppm test suspension): 93%; pest or weed control at 200 ppm (Alternaria solani; Alternaria solani, 200 ppm test suspension): 100%; pest or weed control at 200 ppm ([2]; Puccinia recondita, 200 ppm test suspension): 100%
11 | COc1cc(OC)cc(-c2c(Cl)nnc(C)c2-c2c(F)cc(F)cc2F)c1 [Compound 12, 3-chloro-4-(3,5-dimethoxyphenyl)-6-methyl-5-(2,4,6-trifluorophenyl)pyridazine] |  |  |  |  |  | 99 | 99 | 100 | 99 | 100 | 100 |  |  | 
12 | COc1cc(OC)cc(-c2c(Cl)nnc(C)c2-c2ccc(F)cc2F)c1 [Compound 3] |  | 0 | 79 | 31 | 97 |  |  |  |  |  |  | 91 | 97 | 
13 | COc1cc(-c2c(C)nnc(C)c2-c2ccc(F)cc2F)cc(OC)c1Cl [Compound 50] | 100 | 100 | 100 | 100 | 100 |  |  |  |  |  |  |  |  | 
14 | COc1cc(OC)cc(-c2c(C)nnc(F)c2-c2c(F)cccc2Cl)c1 [Compound 47] | 100 | 99 | 99 | 100 | 99 |  |  |  |  |  |  |  |  | 
15 | COc1cc(OC)cc(-c2c(C)nnc(Cl)c2-c2c(F)cc(F)cc2F)c1 [Compound 8, 3-chloro-5-(3,5-dimethoxyphenyl)-6-methyl-4-(2,4,6-trifluorophenyl)-pyridazine] |  |  |  |  |  | 100 | 100 | 99 | 99 | 100 | 100 |  |  | 
16 | COc1cc(OC)cc(-c2c(C)nnc(C)c2-c2c(F)cc(F)cc2F)c1 [Compound 9, 4-(3,5-dimethoxyphenyl)-3,6-dimethyl-5-(2,4,6-trifluorophenyl)pyridazine] |  |  |  |  |  | 100 | 100 | 100 | 100 | 99 | 100 |  |  | 
17 | COc1cc(OC)cc(-c2c(Cl)nnc(C)c2-c2ccc(F)cc2)c1 [Compound 13] |  | 0 | 39 | 0 | 19 |  |  |  |  |  |  | 8 | 45 | 
18 | COc1ccc(-c2c(C)nnc(Cl)c2-c2cc(OC)cc(OC)c2)cc1 [Compound 2] |  | 0 | 26 | 58 | 74 |  |  |  |  |  |  | 95 | 62 | 
19 | COc1cc(OC)cc(-c2c(C)nnc(C)c2-c2ccc(F)cc2Cl)c1 [Compound 52] | 9 | 87 | 99 | 94 | 100 |  |  |  |  |  |  | 99 |  | 
20 | COc1cc(OC)cc(-c2c(C(C)(C)O)nnc(C)c2-c2c(F)cc(F)cc2F)c1 [Compound 21, 4-(3,5-dimethoxyphenyl)-α,α,6-trimethyl-5-(2,4,6-trifluorophenyl)-3-pyridazinemethanol] |  |  |  |  |  | 40 | 100 | 100 | 98 | 99 | 100 |  |  | 
